Assay results reported in BindingDB's records for doi:10.1016/0014-2999(88)90492-x (Novo Industri, 1988).
Structures can show the parent of a compound that is named as a salt.

Legend:
D(1A) dopamine receptor = D(1A) dopamine receptor (Mus musculus, UniProt Q61616)
D(2) dopamine receptor = D(2) dopamine receptor (Mus musculus, UniProt P61168)
Chain of D(2) dopamine receptor (P61168 whole entry): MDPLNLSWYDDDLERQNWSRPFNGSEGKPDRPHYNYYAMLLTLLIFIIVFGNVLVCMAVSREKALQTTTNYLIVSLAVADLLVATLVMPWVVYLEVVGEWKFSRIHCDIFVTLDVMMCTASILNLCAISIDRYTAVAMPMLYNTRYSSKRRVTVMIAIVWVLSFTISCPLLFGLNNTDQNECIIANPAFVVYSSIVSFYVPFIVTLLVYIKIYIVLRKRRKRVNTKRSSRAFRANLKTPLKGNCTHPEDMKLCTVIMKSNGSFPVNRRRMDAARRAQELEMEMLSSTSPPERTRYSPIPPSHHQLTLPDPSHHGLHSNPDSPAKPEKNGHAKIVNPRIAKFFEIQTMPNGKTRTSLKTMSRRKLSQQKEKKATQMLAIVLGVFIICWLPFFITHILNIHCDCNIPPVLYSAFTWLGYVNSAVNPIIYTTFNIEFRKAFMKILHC

Chain of D(1A) dopamine receptor (Q61616 whole entry): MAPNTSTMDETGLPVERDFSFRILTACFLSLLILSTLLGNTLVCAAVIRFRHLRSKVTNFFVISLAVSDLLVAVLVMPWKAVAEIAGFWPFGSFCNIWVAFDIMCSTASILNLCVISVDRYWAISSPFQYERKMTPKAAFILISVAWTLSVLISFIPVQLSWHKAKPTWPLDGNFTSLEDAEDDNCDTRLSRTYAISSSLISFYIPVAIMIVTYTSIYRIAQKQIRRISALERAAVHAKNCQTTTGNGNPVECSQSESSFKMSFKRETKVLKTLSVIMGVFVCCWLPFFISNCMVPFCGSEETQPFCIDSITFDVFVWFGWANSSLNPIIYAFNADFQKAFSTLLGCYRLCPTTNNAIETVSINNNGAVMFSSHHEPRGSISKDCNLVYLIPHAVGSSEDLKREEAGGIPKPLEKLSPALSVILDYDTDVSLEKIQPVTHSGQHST

## OCCN1CCN(CCCN2c3ccccc3Sc3ccc(C(F)(F)F)cc32)CC1 [2-[4-[3-[2-(trifluoromethyl)phenothiazin-10-yl]propyl]piperazin-1-yl]ethanol;hydrochloride]
D(1A) dopamine receptor
  Ki: 4.5 nM

## CCN1CCC[C@H]1CNC(=O)c1c(O)c(Cl)cc(Cl)c1OC [3,5-Dichloro-N-(1-ethyl-pyrrolidin-2-ylmethyl)-2-hydroxy-6-methoxy-benzamide (raclopride)]
D(2) dopamine receptor
  Ki: 4.8 nM
D(1A) dopamine receptor
  Ki: > 10000 nM

## CN1CCN(C2=Nc3cc(Cl)ccc3Cc3sccc32)CC1 [CAS_42239-60-1]
D(2) dopamine receptor
  Ki: 27 nM
D(1A) dopamine receptor
  Ki: 17 nM

## CCN1CCCC1CNC(=O)c1cc(S(N)(=O)=O)ccc1OC (centres undefined) [N-[(1-ethylpyrrolidin-2-yl)methyl]-2-methoxy-5-sulfamoylbenzamide]
D(2) dopamine receptor
  Ki: 70 nM

## O=C(O)c1ccccc1C(=O)Nc1cccc2ccccc12 [NPA,(+)]
D(2) dopamine receptor
  Ki: 4.1 nM
D(1A) dopamine receptor
  Ki: 480 nM

## CN1CCN(C2=Nc3ccccc3Oc3ccc(Cl)cc32)CC1 [13-chloro-10-(4-methylpiperazin-1-yl)-2-oxa-9-azatricyclo[9.4.0.0^{3,8}]pentadeca-1(11),3,5,7,9,12,14-heptaene]
D(2) dopamine receptor
  Ki: 7.6 nM
D(1A) dopamine receptor
  Ki: 16 nM

## CCc1c(C)[nH]c2c1C(=O)C(CN1CCOCC1)CC2 (centres undefined) [Moban]
D(2) dopamine receptor
  Ki: 56 nM
D(1A) dopamine receptor
  Ki: > 10000 nM

## CN1CCN(C2=Nc3cc(F)ccc3Cc3ccccc32)CC1
D(2) dopamine receptor
  Ki: 245 nM
D(1A) dopamine receptor
  Ki: 85 nM
